Test [1] deals with HepG2 (hepatocellular carcinoma). Briefly: Cell growth inhibition, MTT assay, HepG2. In kind it is cell-based. The settings on record: Homo sapiens.
The subject of test [2] is HeLa cells. Briefly: Cell cycle analysis by flow cytometry (PI), HeLa. Type of test: cell-based, human. The conditions noted are these: 100 nM. Here is the method:
To assess how tubulin polymerization inhibition and the effects on the microtubule network affect the cell cycle, flow cytometry experiments were performed on HeLa, MCF7, and U87 MG cells 24, 48, and 72 h after treatments with compounds 10, 12, and 14 at 100 nM using propidium iodide (PI) for DNA staining and untreated cells as the negative control.
HeLa, MCF7, or U87 MG cells were seeded in 6-well plates (8·10^4 cells/mL, 2 mL/well) and incubated in complete DMEM Medium (see above) at 37 °C and 5% CO2 atmosphere for 24 h. Then, the cells were treated with selected compounds (10, 12, or 14) at 100 nM, and untreated cells were used as negative controls. Cells were collected 24, 48, or 72 h following treatment and fixed overnight in ethanol/PBS (7:3) at 4 °C. After two washes with PBS, cells were suspended in PBS and incubated in darkness overnight with 0.2 mg/mL RNase A (Sigma-Aldrich, St. Louis, MO, USA), 50 µg/mL propidium iodide (Sigma-Aldrich, St. Louis, MO, USA), and Triton 10x at room temperature. A BD Accuri™ C6 Plus Flow Cytometer (BD Biosciences, Franklin Lakes, NJ, USA) cytometer was used to analyze the samples, and BD Accuri™ C6 Software (version 1.0.264.21) was used for data analysis.

The subject of test [3] is HeLa cells. As to the kind of experiment: Apoptotic cell death quantification, Annexin V-FITC/PI, HeLa. In kind it is cell-based, human. The settings on record: 72 h, 100 nM. Here is the method:
(§1) To characterize the cell death mechanism induced by the representative compounds 10, 12, or 14 at 100 nM on HeLa, MCF7, and U87 MG cells, dual-channel flow cytometry studies were carried out for cells in the absence (negative control) or presence of compounds 72 h after treatment. Fluorescein isothiocyanate-labeled Annexin V (FITC-AnV) and propidium iodide (PI) were used for double staining. Regarding their response to AnV and PI, cells can be identified as viable (PI−, AnV−), early apoptotic (PI−, AnV+), late apoptotic or secondary necrotic (PI+, AnV+), or necrotic (PI+, AnV−). The translocation of the phosphatidylserine from the inner to the outer cell membrane causes the response of apoptotic cells to AnV, whereas only cells suffering some kind of membrane disintegration (late apoptotic or necrotic cells) allow PI permeation.
(§2) Following the manufacturer’s guidelines, an Annexin V-FITC/PI apoptosis detection kit (Immunostep, Salamanca, Spain) was used to quantify HeLa, MCF7, or U87 MG cells. Cells were seeded in 12-well plates (5·10^4 cells/mL, 1 mL/well) and incubated in complete DMEM medium (see above) at 37 °C and 5% CO2 atmosphere for 24 h. Then, the cells were treated with selected compounds (10, 12, or 14) at 100 nM, and untreated cells were used as negative controls. Then, 72 h after incubation, the cells were harvested, centrifugated, resuspended in the Annexin V binding buffer, and incubated in darkness with Annexin V-FITC/PI for 15 min at room temperature. The samples were analyzed by using a BD Accuri™ C6 Plus Flow Cytometer (BD Biosciences), and acquired data were analyzed via BD Accuri™ C6 Software (version 1.0.264.21).

For a further test, the system named is U87 MG cells. As to the kind of experiment: Apoptotic cell death quantification, Annexin V-FITC/PI, U87 MG. Type of test: cell-based, human. The settings on record: 72 h, 100 nM; for Necrotic cells: PI+ AnV−; for Live cells: PI− AnV−. Here is the method: as §1, §2
The test system of test [4] is microtubule network of U87 MG cells. Briefly: Immunofluorescence confocal microscopy of microtubule network, U87 MG. The settings on record: 24 h, 100 nM, α-tubulin immunofluorescence. Type of test: cell-based, human. Here is the method: To elucidate if the interaction of the compounds with tubulin inferred from the in vitro TPI experiments has consequences on cellular microtubules, we studied the effect of representative compounds on the microtubule network of HeLa, MCF7, and U87 MG cells 24 h after treatment via the use of immunofluorescence confocal microscopy through α-tubulin and nuclei labeling.
HeLa, MCF7, and U87 MG cells (8·10^4 cells/mL) were grown on 0.01% poly-L-lysine pre-coated square glass coverslips (22 mm^2), deposited on 6-well plates (1 coverslip/well), and incubated in complete DMEM medium (see above) at 37 °C and 5% CO2 atmosphere for 24 h. Then, the cells were incubated for 24 h in the presence or absence (negative controls) of selected compounds (10, 12, or 14) at 100 nM. After drug treatment incubation, medium was removed, and coverslips were washed three times with PBS, fixed with 4% formaldehyde in PBS for 10 min, permeabilized with 0.5% Triton X-100, (Sigma-Aldrich, St. Louis, MO, USA) in PBS for 90 s at 4 °C, blocked with 10% BSA in PBS for 30 min, and washed with PBS four times. The coverslips were incubated for 1 h with anti-α-tubulin mouse monoclonal antibody (Sigma-Aldrich, St. Louis, MO, USA), diluted 1:200 in PBS containing 3% BSA, washed four times with PBS, and then incubated in darkness with the fluorescent secondary antibody Alexa Fluor 488 goat anti-mouse IgG (Molecular Probes, Invitrogen, Eugenen, OR, USA) and diluted 1:400 in PBS containing 1% BSA for 1.5 h. The coverslips were washed four times with PBS, and a drop of ProLong™ Gold Antifade Mountant containing DAPI (ThermoFisher, Waltham, MA, USA) was added for cell nuclei staining. The samples were analyzed via confocal microscopy, which was performed by using a LEICA SP5 microscope DMI-6000V model coupled to a LEICA LAS AF software computer.

Consider `CSc1cc(-c2nnnn2-c2ccc3c(ccn3C)c2)cc(Cl)n1` [Compound 10, 5-(5-(2-chloro-6-(methylsulfanyl)pyridin-4-yl)-1H-tetrazol-1-yl)-1-methyl-1H-indole], for which the IC50 in test [1] (72 h after drug exposure) worked out at 0.037 µM. The same compound came in with an IC50 in test [1] (mean ± SD, Table S1) of 0.0371 ± 0.0002 µM. Besides, in the test with HeLa cells [2] (24 h), the G0/G1 population is 18.1 % Cells, the G2/M population stood at 59.5 % Cells, the S population came to 3.9 % Cells and the SubG0/G1 population is given as 18.6 % Cells. In the test on HeLa cells [2] (48 h), this compound had a G0/G1 population of 16.7 % Cells, a G2/M population of 45.9 % Cells, a S population of 7.6 % Cells and a SubG0/G1 population of 29.1 % Cells. In the test with HeLa cells [2] (72 h), the G0/G1 population was found to be 14.4 % Cells, the G2/M population was 35.2 % Cells, the S population is on record as 4.9 % Cells and the SubG0/G1 population was found to be 45.6 % Cells. Further, the “apoptosis (early and late apoptotic death)” value (from here on “apoptosis”) in the test with HeLa cells [3] was roughly 73%. In the test on U87 MG cells, the apoptotic response is reported as 70–74%, the Necrotic cells is listed as 15–19% and the Live cells is reported as 9–15%. Besides, in test [4], the “effect on microtubule network” value is recorded as “severe microtubule network disruption”.

Regarding `Cn1cc(C=O)c2cc(-n3nnnc3-c3cc(Cl)nc(Cl)c3)ccc21` [Compound 12, 5-(5-(2,6-dichloropyridin-4-yl)-1H-tetrazol-1-yl)-1-methyl-1H-indole-3-carbaldehyde], 0.036 µM corresponded to half-maximal inhibition in test [1] (72 h after drug exposure) (IC50). In addition, half-maximal inhibition in test [1] (mean ± SD, Table S1) (IC50) required 0.0364 ± 0.0002 µM. Also, in the test on HeLa cells [2] (24 h), the G0/G1 population was determined as 20.0 % Cells, the G2/M population was found to be 57.8 % Cells, the S population worked out at 4.6 % Cells and the SubG0/G1 population amounted to 17.8 % Cells. Further, in the test on HeLa cells [2] (48 h), the G0/G1 population stood at 18.2 % Cells, the G2/M population was 40.8 % Cells, the S population is 7.8 % Cells and the SubG0/G1 population was 32.5 % Cells. Further, in the test on HeLa cells [2] (72 h), the G0/G1 population was 15.3 % Cells, the G2/M population was 34.0 % Cells, the S population was 5.6 % Cells and the SubG0/G1 population was found to be 45.4 % Cells. The “apoptosis” value in the test on HeLa cells [3] is reported as roughly 73%. Besides, in the test on U87 MG cells, the apoptotic response is 70–74%, the Necrotic cells is recorded as 15–19% and the Live cells is listed as 9–15%. Further, in test [4], the “effect on microtubule network” value is reported as “severe microtubule network disruption”.

Take `CSc1cc(-c2nnnn2-c2ccc3c(c2)c(C=O)cn3C)cc(Cl)n1` [Compound 14, 5-(5-(2-chloro-6-(methylsulfanyl)pyridin-4-yl)-1H-tetrazol-1-yl)-1-methyl-1H-indole-3-carbaldehyde]: half-maximal inhibition in test [1] (72 h after drug exposure) (IC50) was put at 0.031 µM. In test [1] (mean ± SD, Table S1), half-maximal inhibition (IC50) was put at 0.0311 ± 0.0003 µM. In the test on HeLa cells [2] (24 h), this compound displayed a G0/G1 population of 16.6 % Cells, a G2/M population of 47.0 % Cells, a S population of 3.7 % Cells and a SubG0/G1 population of 32.7 % Cells. For the same compound, in the test on HeLa cells [2] (48 h), the G0/G1 population amounted to 17.1 % Cells, the G2/M population is reported as 34.1 % Cells, the S population was 7.0 % Cells and the SubG0/G1 population was found to be 41.3 % Cells. In the test with HeLa cells [2] (72 h), this compound gave a G0/G1 population of 9.6 % Cells, a G2/M population of 25.4 % Cells, a S population of 8.1 % Cells and a SubG0/G1 population of 57.4 % Cells. Further, the “apoptosis” value with HeLa cells [3] is 80%. In the test on U87 MG cells, the apoptotic response is 70–74%, the Necrotic cells is 15–19% and the Live cells was 9–15%. The “effect on microtubule network” value in test [4] is “severe microtubule network disruption”.

Values taken from PMC10342533, “Novel Tetrazole Derivatives Targeting Tubulin Endowed with Antiproliferative Activity against Glioblastoma Cells” (International Journal of Molecular Sciences, 2023).
